Data set [1] is described as follows: Dissociation constant, pKa of the compound. Format: physicochemical.
Data set [2] is described as follows: Intrinsic clearance in human liver microsomes. Format: ADME. The following applies: read-out: CLH.
A short description of data set [3]: Intrinsic clearance in human hepatocytes. Format: ADME, cell-based, Hepatocyte. The following applies: read-out: CLH.

The structures appear in SMILES notation.

The molecule `O=c1[nH]ccc(N[C@H]2CC[C@@H](NCC(F)F)CC2)c1-c1nc2ccccc2[nH]1` displayed a pKa in data set [1] of 6.6.
On to `O=c1[nH]ccc(N[C@H]2CC[C@@H](NCC(F)(F)F)CC2)c1-c1nc2ccccc2[nH]1`, for which the pKa in data set [1] came out at 4.8.
The molecule `COCCN[C@H]1CC[C@@H](Nc2cc[nH]c(=O)c2-c2nc3ccccc3[nH]2)CC1` gave a pKa in data set [1] of 9.2.
Take `N[C@H]1CC[C@@H](Nc2cc[nH]c(=O)c2-c2nc3ccccc3[nH]2)CC1`: the CLint scaled is below 15 mL/min/kg in data set [2] and 12 mL/min/kg in data set [3].
Molecule `CCN[C@H]1CC[C@@H](Nc2cc[nH]c(=O)c2-c2nc3ccccc3[nH]2)CC1` displayed a pKa in data set [1] of 10.5.
In data set [1], `O=c1[nH]ccc(N[C@H]2CC[C@@H](NCCF)CC2)c1-c1nc2ccccc2[nH]1` had a pKa of 8.8.

One may read the pKa as the negative logarithm of the acid dissociation constant. Low values mean a stronger acid or weaker base, high ones a weaker acid or stronger base.

(Values after ChEMBL document CHEMBL3779778, “Structure-based design and development of (benz)imidazole pyridones as JAK1-selective kinase inhibitors” (Bioorg Med Chem Lett, 2016).)
